± gives the expanded uncertainty stated by the source.
Test: mn = molality of the nth substance listed, in mol/kg
Settings: 298.15 K, 101 kPa, Liquid, Vibrating tube method

Structure (SMILES)	mass density (m1 = 0.0499) [kg/m3]	mass density (m1 = 0.1004) [kg/m3]	mass density (m1 = 0.1501) [kg/m3]	mass density (m1 = 0.2) [kg/m3]	mass density (m1 = 0.2492) [kg/m3]	mass density (m1 = 0.2995) [kg/m3]	mass density (m1 = 0.3512) [kg/m3]	mass density (m1 = 0.3991) [kg/m3]	mass density (m1 = 0.4485) [kg/m3]	mass density (m1 = 0.5013) [kg/m3]	mass density (m1 = 0.5509) [kg/m3]	mass density (m1 = 0.5987) [kg/m3]	mass density (m1 = 0.1998) [kg/m3]	mass density (m1 = 0.35) [kg/m3]	mass density (m1 = 0.4985) [kg/m3]	mass density (m1 = 0.6496) [kg/m3]	mass density (m1 = 0.7999) [kg/m3]	mass density (m1 = 0.95) [kg/m3]
O=C(O)CNCC(=O)O [N-(carboxymethyl)glycine] + O	1000.08 ± 0.064	1002.85 ± 0.065	1005.55 ± 0.066	1008.22 ± 0.067	1010.83 ± 0.068	1013.46 ± 0.069	1016.13 ± 0.07	1018.57 ± 0.071	1021.04 ± 0.072	1023.68 ± 0.074	1026.15 ± 0.075	1028.49 ± 0.076						
OC[C@@H](O)[C@H](O)[C@@H](O)CO [xylitol] + O													1006.8 ± 0.067	1013.81 ± 0.07	1020.47 ± 0.073	1027.38 ± 0.077	1033.72 ± 0.08	1039.84 ± 0.084

— the NIST ThermoML archive (doi:10.1016/j.jct.2011.02.005)
